# Experimental data: ChEMBL document CHEMBL4411307, “N,N'-diaryl-bishydrazones in a biphenyl platform: Broad spectrum antifungal agents” (Eur J Med Chem, 2019)
# Activity calls are given as the source filed them. The calls are words filed in the database; no cut-off is given here.
# What was measured:
# [1] = Hemolytic activity in mouse RBC at 3.9 ug/ml after 1 hr relative to control; type: ADME, cell-based, Erythrocyte; conditions: red blood cells (erythrocytes), read-out: Activity
# Aspergillus flavus = experiment: Antifungal activity against Aspergillus flavus ATCC MYA-3631 measured after 48 hrs by CLSI M38-A2 protocol based method; type: functional; conditions: ATCC MYA-3631, 48 h
# Candida albicans [2] = experiment: Antibiofilm activity against fluconazole/ITC-resistant Candida albicans ATCC 10231 assessed as reduction in sessile growth after 24 hrs by XTT assay; type: functional; conditions: ATCC 10231, 24 h
# Candida parapsilosis = experiment: Antifungal activity against Candida parapsilosis ATCC 22019 measured after 48 hrs by CLSI M27-A3 protocol based method; type: functional; conditions: Lodderomyces parapsilosis, ATCC 22019, 48 h
# Candida albicans [3] = experiment: Antifungal activity against fluconazole/ITC-resistant Candida albicans ATCC 64124 measured after 48 hrs by CLSI M27-A3 protocol based method; type: functional; conditions: ATCC 64124, 48 h
# Candida albicans [4] = experiment: Antifungal activity against fluconazole/ITC-resistant Candida albicans ATCC MYA-1237 measured after 48 hrs by CLSI M27-A3 protocol based method; type: functional; conditions: ATCC MYA-1237, 48 h
# [5] = Hemolytic activity in mouse RBC at 1.95 ug/ml after 1 hr relative to control; type: ADME, cell-based, Erythrocyte; conditions: red blood cells (erythrocytes), read-out: Activity
# Candida albicans [6] = experiment: Antifungal activity against fluconazole/ITC-susceptible Candida albicans ATCC MYA-2310 measured after 48 hrs by CLSI M27-A3 protocol based method; type: functional; conditions: ATCC MYA-2310, 48 h
# Candida albicans [7] = experiment: Antifungal activity against fluconazole/ITC-resistant Candida albicans ATCC 10231 measured after 48 hrs by CLSI M27-A3 protocol based method; type: functional; conditions: ATCC 10231, 48 h
# Candida albicans [8] = experiment: Fungicidal activity against fluconazole/ITC-resistant Candida albicans ATCC 10231 assessed as reduction in fungal growth at 0.5 to 2 times MIC incubated for 24 hrs followed by replating on PDA plates measured after 48 hrs Time-Kill assay; type: functional, organism-based
# Aspergillus terreus = experiment: Antifungal activity against Aspergillus terreus ATCC MYA-3633 measured after 48 hrs by CLSI M38-A2 protocol based method; type: functional; conditions: ATCC MYA-3633, 48 h
# Candida albicans [9] = experiment: Antifungal activity against fluconazole/ITC-resistant Candida albicans ATCC 90819 measured after 48 hrs by CLSI M27-A3 protocol based method; type: functional; conditions: ATCC 90819, 48 h
# [10] = Hemolytic activity in mouse RBC at 7.8 ug/ml after 1 hr relative to control; type: ADME, cell-based, Erythrocyte; conditions: red blood cells (erythrocytes), read-out: Activity
# [11] = Hemolytic activity in mouse RBC at 31.3 ug/ml after 1 hr relative to control; type: ADME, cell-based, Erythrocyte; conditions: red blood cells (erythrocytes), read-out: Activity
# [12] = Hemolytic activity in mouse RBC at […] after 1 hr relative to control; type: ADME, cell-based, Erythrocyte; conditions: red blood cells (erythrocytes), read-out: Activity; further: tested at 0.48 µg/mL
# Aspergillus nidulans = experiment: Antifungal activity against Aspergillus nidulans ATCC 38163 measured after 48 hrs by CLSI M38-A2 protocol based method; type: functional; conditions: ATCC 38163, 48 h
# Candida albicans [13] = experiment: Antibiofilm activity against fluconazole/ITC-resistant Candida albicans ATCC 64124 assessed as reduction in sessile growth after 24 hrs by XTT assay; type: functional; conditions: ATCC 64124, 24 h
# [14] = Hemolytic activity in mouse RBC at […] ug/ml after 1 hr relative to control; type: ADME, cell-based, Erythrocyte; conditions: red blood cells (erythrocytes), read-out: Activity
smiles,measurement,setting,value
C[C@@H](c1ncncc1F)[C@](O)(Cn1cncn1)c1ccc(F)cc1F [VORICONAZOLE],"hemolysis at 1 h, 3.9 ug/ml",[1],7.5%
same,MIC,Aspergillus flavus,> 31.3 µg/mL
same,MIC50,Candida albicans [2],16 µg/mL
same,MIC90,Candida albicans [2],> 32 µg/mL
same,MIC,Candida parapsilosis,1.95 µg/mL
same,MIC,Candida albicans [3],0.24 µg/mL
same,MIC,Candida albicans [4],0.24 µg/mL
same,"hemolysis at 1 h, 1.95 ug/ml",[5],6.3%
same,MIC,Candida albicans [6],0.12 µg/mL
same,MIC,Candida albicans [7],0.975 µg/mL
same,Activity,Candida albicans [8],Active
same,MIC,Aspergillus terreus,> 31.3 µg/mL
same,MIC,Candida albicans [9],0.12 µg/mL
same,"hemolysis at 1 h, 7.8 ug/ml",[10],11.4%
same,"hemolysis at 1 h, 31.3 ug/ml",[11],83%
same,"hemolysis at 1 h, […]",[12],8.7%
same,MIC,Aspergillus nidulans,> 31.3 µg/mL
same,MIC50,Candida albicans [13],16 µg/mL
same,MIC90,Candida albicans [13],> 32 µg/mL
same,"hemolysis at 1 h, 15.6 ug/ml",[14]; at 15.6 µg/mL,2.8%
same,"hemolysis at 1 h, 0.975 ug/ml",[14],10.3%
